In patent publication US6060458A (The United States of America as represented by the …, priority 1998, dated 2000):
Changes are numbered by the printed parent chain.

What was measured:
[1] = tested on: wild-type human alkyltransferase (AGT); test: Inactivation of purified wild-type human AGT, residual activity on [3H]-methylated DNA substrate; assay type: biochemical; details: 30 min at 37° C. incubation with inactivator
Protocol: (§1) Whether or not a given single-stranded oligodeoxyribonucleotide inactivates a wild-type or mutant human alkyltransferase can be determined by measuring alkyltransferase depletion. For example, a stock solution (100 mM) of a given single-stranded oligodeoxyribonucleotide in an aqueous or mixed aqueous/organic solvent can be prepared. Solutions of the human wild-type AGT, mutant human AGT, or the AGT from HT29 cells and cell extracts (Domoradzki et al., Carcinogenesis 5: 1641-1647 (1984)) can be incubated with varying concentrations (between 0 and 400 μM, for example) of the oligodeoxyribonucleotide for 30 min in a buffer containing 50 mM Tris-HCl, pH 7.5, 0.1 mM EDTA, and 5 mM dithiothreitol, and alkyltransferase depletion can be measured. Alternatively, cells can be plated at a density of 5×10^6 cells/T75 flask and allowed to grow for three days, at which time the medium can be replaced with medium containing a given concentration of an oligodeoxyribonucleotide. After four hours, cells can be harvested and frozen at -80° C. for analysis of alkyltransferase depletion later. Alkyltransferase depletion is determined by measuring loss of O^6 -[^3 H]methylguanine, for example, from a [^3 H]methylated DNA substrate, for example, which can be prepared by reacting [^3 H]methylnitrosourea (21.5 Ci/mmol) with calf thymus DNA as described previously (Domoradzki et al. (1984), supra; and Dolan et al. (1990), supra).
(§2) Wild-type human AGT and mutants thereof, namely P140A and G156A, were prepared using the pIN vector expression system. pIN-AGT, pIN-P140A (Pro-140 to Ala) and pIN-G156A (Gly-156 to Ala) (Crone et al. (1993), supra; Crone et al. (1994), supra; and Pegg et al. (1993), supra).
(§3) The wild-type and mutant AGT proteins expressed from the pIN vectors were purified to homogeneity by ammonium sulfate precipitation, Mono-S chromatography and gel filtration as previously described (Pegg et al. (1993), supra; and Kanugula et al. (1995), supra). […] Afterwards, residual AGT activity was determined by a 30 min incubation with a [^3 H]-methylated DNA substrate (1.0 ml volume), which had been methylated by reaction with N-[^3 H]-methyl-N-nitrosourea as previously described (Dolan et al. (1993), supra; and Dolan et al. (1991), supra).

[2] = molecular target: T1, mutant human alkyltransferase G156A (Homo sapiens, UniProt P16455, G156A); test: Inactivation of purified mutant human AGT G156A, residual activity on [3H]-methylated DNA substrate; assay type: biochemical; details: 30 min at 37° C. incubation with inactivator
T1 construct: made in house; E. coli by own knowledge of pIN vectors
T1 sequence (P16455 1-207 G156A): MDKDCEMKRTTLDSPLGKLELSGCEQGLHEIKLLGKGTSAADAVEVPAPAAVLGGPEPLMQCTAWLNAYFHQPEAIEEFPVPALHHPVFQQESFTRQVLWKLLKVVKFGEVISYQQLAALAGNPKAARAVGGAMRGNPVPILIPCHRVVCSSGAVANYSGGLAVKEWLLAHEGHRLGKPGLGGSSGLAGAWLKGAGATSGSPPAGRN
Protocol: as §1, §2, §3

[3] = molecular target: T2, mutant human alkyltransferase P140A (Homo sapiens, UniProt P16455, P140A); test: Inactivation of purified mutant human AGT P140A, residual activity on [3H]-methylated DNA substrate; assay type: biochemical; details: 30 min at 37° C. incubation with inactivator
T2 construct: made in house; E. coli by own knowledge of pIN vectors
T2 sequence (P16455 1-207 P140A): T1 sequence (P16455 1-207 G156A) with P140A, A156G
Protocol: as §1, §2, §3

[4] = molecular target: wild-type human alkyltransferase (AGT); details: data previously published, read-out: ED50 for inactivation of AGT; cited from earlier work
[5] = molecular target: T1, mutant human alkyltransferase G156A; details: G156A mutant AGT; data previously published; read-out: ED50 for inactivation of AGT; cited from earlier work
[6] = molecular target: T2, mutant human alkyltransferase P140A; details: P140A mutant AGT; data previously published; read-out: ED50 for inactivation of AGT; cited from earlier work
[7] = tested on: AGT; details: cell culture; maximal reduction attained (Pegg et al. (1995)); cited from earlier work

Row | Compound | ED50 for inactivation of AGT (concentration needed to reduce AGT activity by 50%) [1] | ED50 for inactivation of AGT (concentration needed to reduce AGT activity by 50%) [2] | ED50 for inactivation of AGT (concentration needed to reduce AGT activity by 50%) [3] | IC50 [4] | IC50 [5] | IC50 [6] | reduction of AGT activity [7]
1 | 5'-d(TGAb^6 GCTG)-3' | 0.007 µM | 0.05 µM | 0.06 µM |  |  |  | 
2 | Nc1nc(OCc2ccccc2)c2ncn([C@H]3C[C@H](O)[C@@H](CO)O3)c2n1 [O^6-benzyl-2'-deoxyguanosine] |  |  |  | 2 µM | > 100 µM | > 20 µM | 
3 | Nc1nc(OCc2ccccc2)c2[nH]cnc2n1 [O^6 -benzylguanine] |  |  |  | 0.2 µM |  |  | 
4 | 5'-d(Ab^6 GC)-3' | 0.09 µM | 4.6 µM | 0.77 µM |  |  |  | 
5 | 5'-d(TGTGAb^6 GCTGTG)-3' | 0.013 µM | 0.11 µM | 0.075 µM |  |  |  | 
6 | 5'-d(GTGAb^6 GCTGT)-3' | 0.008 µM | 0.09 µM | 0.06 µM |  |  |  | 
7 | 5'-d(GAb^6 GCT)-3' | 0.013 µM | 0.06 µM | 0.05 µM |  |  |  | 
8 | COc1nc(N)nc2[nH]cnc12 [O^6 -methylguanine] |  |  |  |  |  |  | 85%
